Legend:
S. aureus Newman [1] = assay: Bliss interaction score (quartile over a dose matrix) (fitness difference); higher = more antagonism (negative = synergy)
Procedure, shortened: (§1)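 The Bliss score takes observed fitness and subtracts the expected fitness, calculated as a product of single-drug fitness values. Those single-drug values were inferred from the combination data. Fitness is OD595 at entry into stationary phase divided by the plate's robust no-drug mean, capped at 1, and the score is summarised by quartiles across technical, biological and donor/recipient replicates.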

S. aureus DSM 20231 [2] = assay: as above
Procedure, shortened: as §1

B. subtilis 168 [3] = assay: as above
Procedure, shortened: as §1

S. pneumoniae D39V [4] = assay: as above
Procedure, shortened: as §1

S. aureus Newman [5] = assay: fitness (endpoint OD595 vs no drug) (fraction); higher = more growth
Procedure, shortened: (§2)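 Each well of a 384-well plate received 30 µl of culture at OD595 0.01, or 55 µl for S. pneumoniae. TSB, LB Lennox or CY served as media at 37 °C. OD595 was taken every 30 min for 14 h and corrected by subtracting the first reading. Fitness is the optical density at stationary-phase entry divided by the robust mean of no-drug controls, capped at 1.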

S. aureus DSM 20231 [6] = assay: as above
Procedure, shortened: as §2

B. subtilis 168 [7] = assay: as above
Procedure, shortened: as §2

S. pneumoniae D39V [8] = assay: as above
Procedure, shortened: as §2
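Wherever Bliss interaction score (quartile over a dose matrix) is given: first quartile when negative (synergy) and third quartile when positive (antagonism).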

CCC[C@@H]1C[C@@H](C(=O)N[C@@H]([C@H]2O[C@H](SC)[C@H](O)[C@@H](O)[C@H]2O)[C@H](C)Cl)N(C)C1 [Clindamycin] + CN1C2=CC=CC=C2N=C3C1=CC=CC3=O [Pyocyanin]
Details | Bliss interaction score
B. subtilis 168 [3] | 0.0629
S. aureus DSM 20231 [2] | 0.025
S. aureus Newman [1] | -0.141
S. pneumoniae D39V [4] | -0.0665

Details | fitness
B. subtilis 168 [7], first compound 0.0625 µg/mL, partner 1.25 µg/mL | 0.562
B. subtilis 168 [7], first compound 0.0625 µg/mL, partner 2.5 µg/mL | 0.576
B. subtilis 168 [7], first compound 0.0625 µg/mL, partner 5 µg/mL | 0.517
B. subtilis 168 [7], first compound 0.125 µg/mL, partner 1.25 µg/mL | 0.388
B. subtilis 168 [7], first compound 0.125 µg/mL, partner 2.5 µg/mL | 0.389
B. subtilis 168 [7], first compound 0.125 µg/mL, partner 5 µg/mL | 0.358
B. subtilis 168 [7], first compound 0.25 µg/mL, partner 1.25 µg/mL | 0.34
B. subtilis 168 [7], first compound 0.25 µg/mL, partner 2.5 µg/mL | 0.319
B. subtilis 168 [7], first compound 0.25 µg/mL, partner 5 µg/mL | 0.314
S. aureus DSM 20231 [6], first compound 0.0625 µg/mL, partner 5 µg/mL | 0.0689
S. aureus DSM 20231 [6], first compound 0.125 µg/mL, partner 1.25 µg/mL | 0.0414
S. aureus DSM 20231 [6], first compound 0.125 µg/mL, partner 2.5 µg/mL | 0.0387
S. aureus DSM 20231 [6], first compound 0.125 µg/mL, partner 5 µg/mL | 0.0705
S. aureus Newman [5], first compound 0.0312 µg/mL, partner 1.25 µg/mL | 0.602
S. aureus Newman [5], first compound 0.0312 µg/mL, partner 2.5 µg/mL | 0.424
S. aureus Newman [5], first compound 0.0312 µg/mL, partner 5 µg/mL | 0.155
S. aureus Newman [5], first compound 0.0625 µg/mL, partner 2.5 µg/mL | 0.179
S. aureus Newman [5], first compound 0.0625 µg/mL, partner 5 µg/mL | 0.0835
S. aureus Newman [5], first compound 0.125 µg/mL, partner 1.25 µg/mL | 0.0658
S. aureus Newman [5], first compound 0.125 µg/mL, partner 2.5 µg/mL | 0.0591
S. aureus Newman [5], first compound 0.125 µg/mL, partner 5 µg/mL | 0.0732
S. pneumoniae D39V [8], first compound 0.0125 µg/mL, partner 0.325 µg/mL | 0.775
S. pneumoniae D39V [8], first compound 0.0125 µg/mL, partner 0.65 µg/mL | 0.742
S. pneumoniae D39V [8], first compound 0.0125 µg/mL, partner 1.3 µg/mL | 0.564
S. pneumoniae D39V [8], first compound 0.025 µg/mL, partner 0.325 µg/mL | 0.49
S. pneumoniae D39V [8], first compound 0.025 µg/mL, partner 0.65 µg/mL | 0.458
S. pneumoniae D39V [8], first compound 0.025 µg/mL, partner 1.3 µg/mL | 0.333
S. pneumoniae D39V [8], first compound 0.05 µg/mL, partner 0.325 µg/mL | 0.192
S. pneumoniae D39V [8], first compound 0.05 µg/mL, partner 0.65 µg/mL | 0.147
S. pneumoniae D39V [8], first compound 0.05 µg/mL, partner 1.3 µg/mL | 0.0814

fitness, one replicate
Details | first compound 0.0039 µg/mL | first compound 0.0078 µg/mL | first compound 0.015 µg/mL | first compound 0.0156 µg/mL | first compound 0.03 µg/mL | first compound 0.06 µg/mL
B. subtilis 168 [7], partner 1.25 µg/mL | 0.892 | 0.424 | – | 0.863 | – | –
B. subtilis 168 [7], partner 2.5 µg/mL | 0.922 | 0.451 | – | 0.802 | – | –
B. subtilis 168 [7], partner 5 µg/mL | 0.821 | 0.495 | – | 0.725 | – | –
S. pneumoniae D39V [8], partner 0.325 µg/mL | – | – | 0.89 | – | 0.873 | 0.554
S. pneumoniae D39V [8], partner 0.65 µg/mL | – | – | 0.963 | – | 0.881 | 0.689

CCC[C@@H]1C[C@@H](C(=O)N[C@@H]([C@H]2O[C@H](SC)[C@H](O)[C@@H](O)[C@H]2O)[C@H](C)Cl)N(C)C1 [Clindamycin] + CN(N=O)C(=O)N[C@@H](C=O)[C@@H](O)[C@H](O)[C@H](O)CO [Streptozotocin]
Details | Bliss interaction score
B. subtilis 168 [3] | 0.0373
S. aureus DSM 20231 [2] | -0.0342
S. aureus Newman [1] | 0.0448
S. pneumoniae D39V [4] | -0.0563

fitness
Details | partner 0.15 µg/mL | partner 0.3 µg/mL | partner 0.6 µg/mL | partner 1.2 µg/mL | partner 2.4 µg/mL | partner 4.8 µg/mL
S. aureus DSM 20231 [6], first compound 0.0625 µg/mL | 0.0812 | 0.0698 | 0.0805 | – | – | –
S. aureus DSM 20231 [6], first compound 0.125 µg/mL | 0.0369 | 0.0299 | 0.0239 | – | – | –
S. aureus Newman [5], first compound 0.0312 µg/mL | 0.608 | 0.612 | 0.475 | – | – | –
S. aureus Newman [5], first compound 0.0625 µg/mL | 0.329 | 0.336 | 0.243 | – | – | –
S. aureus Newman [5], first compound 0.125 µg/mL | 0.0373 | 0.0413 | 0.0299 | – | – | –
S. pneumoniae D39V [8], first compound 0.0125 µg/mL | – | – | – | 0.661 | 0.682 | 0.688
S. pneumoniae D39V [8], first compound 0.025 µg/mL | – | – | – | 0.413 | 0.439 | 0.445
S. pneumoniae D39V [8], first compound 0.05 µg/mL | – | – | – | 0.175 | 0.207 | 0.196

fitness, one replicate
Details | first compound 0.0039 µg/mL | first compound 0.0078 µg/mL | first compound 0.015 µg/mL | first compound 0.0156 µg/mL | first compound 0.03 µg/mL | first compound 0.06 µg/mL | first compound 0.0625 µg/mL | first compound 0.125 µg/mL | first compound 0.25 µg/mL
B. subtilis 168 [7], partner 0.15 µg/mL | 1 | 0.954 | – | 0.951 | – | – | 0.545 | 0.41 | 0.378
B. subtilis 168 [7], partner 0.3 µg/mL | ≥ 1 | 0.857 | – | 0.894 | – | – | 0.504 | 0.383 | 0.366
B. subtilis 168 [7], partner 0.6 µg/mL | ≥ 1 | 0.915 | – | 0.89 | – | – | 0.521 | 0.374 | 0.365
S. pneumoniae D39V [8], partner 1.2 µg/mL | – | – | 0.817 | – | 0.702 | 0.595 | – | – | –
S. pneumoniae D39V [8], partner 2.4 µg/mL | – | – | 0.908 | – | 0.79 | 0.666 | – | – | –
S. pneumoniae D39V [8], partner 4.8 µg/mL | – | – | 0.909 | – | 0.71 | 0.554 | – | – | –
